In PubChem BioAssay (NCI):
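Following 48 hours of exposure in 96-well plates, responses at five concentrations were used to interpolate endpoints linearly. The concentration for full growth arrest is given as TGI.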

Experiments:
Assay in all cases: NCI tumour cell line growth inhibition, 48 h
[1] = tested on: LOX IMVI melanoma
[2] = tested on: SNB-75 CNS
[3] = tested on: KM12 colon
[4] = tested on: CCRF-CEM leukemia
[5] = tested on: NCI/ADR-RES ovarian
[6] = tested on: HCC-2998 colon
[7] = tested on: A498 renal
[8] = tested on: DMS 273 small cell lung
[9] = tested on: NCI-H226 lung
[10] = tested on: HCT-15 colon
[11] = tested on: SF-539 CNS
[12] = tested on: SK-MEL-2 melanoma
[13] = tested on: K-562 leukemia
[14] = tested on: RXF 393 renal
[15] = tested on: OVCAR-5 ovarian
[16] = tested on: XF 498 CNS
[17] = tested on: SK-MEL-5 melanoma
[18] = tested on: CAKI-1 renal
[19] = tested on: SK-OV-3 ovarian
[20] = tested on: HOP-18 NSCLC
[21] = tested on: HCT-116 colon
[22] = tested on: SW-620 colon
[23] = tested on: EKVX NSCLC
[24] = tested on: IGROV1 ovarian
[25] = tested on: MOLT-4 leukemia
[26] = tested on: RPMI-8226 leukemia
[27] = tested on: COLO 205 colon
[28] = tested on: KM20L2 colon
[29] = tested on: MALME-3M melanoma
[30] = tested on: P388/ADR leukemia
[31] = tested on: HT29 colon
[32] = tested on: OVCAR-4 ovarian
[33] = tested on: SN12K1 renal
[34] = tested on: HOP-62 NSCLC
[35] = tested on: SNB-78 CNS
[36] = tested on: OVCAR-8 ovarian
[37] = tested on: SF-268 CNS
[38] = tested on: UACC-257 melanoma
[39] = tested on: NCI-H522 lung
[40] = tested on: UO-31 renal
[41] = tested on: U251 CNS
[42] = tested on: SK-MEL-28 melanoma
[43] = tested on: A549 NSCLC
[44] = tested on: SF-295 CNS
[45] = tested on: 786-0 renal
[46] = tested on: UACC-62 melanoma
[47] = tested on: RXF-631 renal
[48] = tested on: DMS 114 small cell lung
[49] = tested on: NCI-H460 lung
[50] = tested on: LXFL 529 NSCLC
[51] = tested on: HOP-92 NSCLC
[52] = tested on: DLD-1 colon
[53] = tested on: HL-60(TB) leukemia
[54] = tested on: TK-10 renal
[55] = tested on: SR leukemia
[56] = tested on: M14 melanoma
[57] = tested on: SNB-19 CNS
[58] = tested on: SN12C renal
[59] = tested on: OVCAR-3 ovarian
[60] = tested on: M19-MEL melanoma
[61] = tested on: NCI-H23 lung
[62] = tested on: ACHN renal

Compound: Cc1cc(O)c2c(c1O)C(=O)C13C(=C2O)C(=O)C2C(O)C1C1C(O)C3C(=O)C3=C(O)c4c(O)cc(C)c(O)c4C(=O)C321 (configuration not stated)
- TGI [1]: 1.46 µM
- TGI [2]: 0.841 µM
- TGI [3]: 10.7 µM
- TGI [4]: 0.613 µM
- TGI [5]: 12.2 µM
- TGI [6]: 0.329 µM
- TGI [7]: 0.253 µM
- TGI [8]: 0.621 µM
- TGI [9]: 0.879 µM
- TGI [10]: 0.182 µM
- TGI [11]: 0.278 µM
- TGI [12]: 0.468 µM
- TGI [13]: 0.56 µM
- TGI [14]: 0.295 µM
- TGI [15]: 9.41 µM
- TGI [16]: 0.504 µM
- TGI [17]: 0.364 µM
- TGI [18]: 0.696 µM
- TGI [19]: 0.319 µM
- TGI [20]: 1.17 µM
- TGI [21]: 0.168 µM
- TGI [22]: 0.313 µM
- TGI [23]: 1.84 µM
- TGI [24]: 2.06 µM
- TGI [25]: 0.483 µM
- TGI [26]: < 0.0312 µM
- TGI [27]: 0.112 µM
- TGI [28]: > 100 µM
- TGI [29]: 0.327 µM
- TGI [30]: 0.144 µM
- TGI [31]: 0.406 µM
- TGI [32]: 7.24 µM
- TGI [33]: 0.848 µM
- TGI [34]: 0.526 µM
- TGI [35]: 0.722 µM
- TGI [36]: 1.59 µM
- TGI [37]: 0.458 µM
- TGI [38]: 3.46 µM
- TGI [39]: 0.543 µM
- TGI [40]: 0.214 µM
- TGI [41]: 0.188 µM
- TGI [42]: 0.59 µM
- TGI [43]: 1.08 µM
- TGI [44]: 0.311 µM

Compound: CCCCCCCC(=O)OC(CBr)COC(=O)C(C)(C)C (configuration not stated)
- TGI [45]: > 100 µM
- TGI [46]: > 100 µM
- TGI [1]: > 100 µM
- TGI [2]: 68.8 µM
- TGI [3]: > 100 µM
- TGI [4]: > 87.2 µM
- TGI [6]: > 100 µM
- TGI [7]: > 100 µM
- TGI [8]: > 100 µM
- TGI [9]: > 100 µM
- TGI [47]: > 100 µM
- TGI [10]: > 100 µM
- TGI [12]: > 100 µM
- TGI [13]: > 100 µM
- TGI [14]: > 100 µM
- TGI [15]: > 100 µM
- TGI [16]: > 100 µM
- TGI [48]: > 100 µM
- TGI [49]: > 100 µM
- TGI [50]: > 100 µM
- TGI [51]: > 100 µM
- TGI [52]: > 100 µM
- TGI [17]: > 100 µM
- TGI [18]: > 100 µM
- TGI [19]: > 100 µM
- TGI [53]: > 100 µM
- TGI [20]: > 100 µM
- TGI [21]: > 100 µM
- TGI [22]: > 100 µM
- TGI [23]: > 100 µM
- TGI [24]: > 100 µM
- TGI [54]: > 100 µM
- TGI [25]: 75.2 µM
- TGI [26]: > 71.2 µM
- TGI [27]: > 100 µM
- TGI [55]: 57.1 µM
- TGI [28]: > 100 µM
- TGI [29]: > 100 µM
- TGI [31]: > 100 µM
- TGI [32]: > 100 µM
- TGI [56]: > 100 µM
- TGI [57]: > 100 µM
- TGI [58]: > 100 µM
- TGI [59]: > 100 µM
- TGI [34]: > 100 µM
- TGI [35]: > 100 µM
- TGI [60]: > 100 µM
- TGI [36]: > 100 µM
- TGI [61]: > 100 µM
- TGI [37]: > 100 µM
- TGI [38]: > 100 µM
- TGI [39]: > 100 µM
- TGI [40]: > 100 µM
- TGI [62]: > 100 µM
- TGI [41]: > 100 µM
- TGI [42]: > 100 µM
- TGI [43]: > 100 µM
- TGI [44]: > 100 µM
